Source: patent publication US20240002428A1, “STORAGE STABLE CAGED HAPTENS” (VENTANA MEDICAL SYSTEMS, INC., priority 2021, published 2024)

Experiment: Hydrolytic stability study of caged haptens at elevated temperature (reverse phase HPLC)
Assay type: physicochemical
Settings: 100 mM PBS (pH 7.2), 37° C. oven, after 50 days of storage
Protocol: To study the hydrolytic stability of caged hapten conjugates having any one of Formulas (IVA), (IVB), or (VA)-(VF) (see FIG. 9) model compounds were subjected to a stability study at elevated temperatures.
Model compounds tested were the NP hapten with two different caging groups along with caged DIG, as set forth below:
The samples of caged NP and caged DIG were stored in 100 mM PBS (pH 7.2) in a 37° C. oven. The buffer and pH were representative of storage conditions for an antibody conjugate. A temperature of 37° C. was chosen to stress the sample and accelerate hydrolytic events. Normal storage conditions or the antibody conjugate were believed to be about 4° C. Aliquots of the samples were removed at regular intervals and tested by reverse phase HPLC on a Waters XBridge column on a Waters Alliance e2695 running Empower 3 (Waters). Each sample HPLC trace was examined for evidence of decaging or other forms of decomposition. […] The caged DIG testing was monitored out to 120 days and <0.5% hydrolysis was still observed at this point.

## COc1cc(Cn2nc(C(=O)NCCN)cc2[N+](=O)[O-])cc(OC)c1OP(=O)(O)O [generation 1 caged-NP]
  hydrolysis (caged hapten hydrolyzed to the native hapten, percentage of the original material): ~15.5%

## COc1cc(Cn2nc(C(=O)NCCN)cc2[N+](=O)[O-])cc(OC)c1OCOP(=O)(O)O [generation 2 caged-NP]
  hydrolysis (caged hapten hydrolyzed to the native hapten, percentage of the original material): ~6%
